Laboratory results reported in patent publication US12516056B2, “Compounds for inhibition of janus kinase 1” (MANKIND PHARMA LTD., priority 2019, dated 2026).

Tests used:
Recombinant JAK1 = target: T1, Recombinant JAK1 (Homo sapiens, UniProt P23458); assay: JAK biochemical assay (LANCE Ultra TR-FRET), JAK1; conditions: recombinant JAK1, TR-FRET; read-out: Biochemical Assay (μM) JAK1
T1 construct: purchased Carna Biosciences
Experimental: (§1) Recombinant JAK1, JAK2, JAK3 and TYK2 (Carna Biosciences) were used to develop biochemical assays in 50 mM HEPES pH 7.5, 1 mM EGTA, 10 mM MgCl2, 2 mM DTT and 0.01% Tween-20. […] The intensity of the light emission is proportional to the level of ULight substrate phosphorylation. Compounds which interfere with JAK enzyme activity show a lesser substrate phosphorylation and values are projected in terms of % inhibition in comparison to vehicle control.

Recombinant JAK2 = target: T2, Recombinant JAK2 (Homo sapiens, UniProt O60674); assay: JAK biochemical assay (LANCE Ultra TR-FRET), JAK2; conditions: recombinant JAK2, TR-FRET; read-out: Biochemical Assay (μM) JAK2
T2 construct: purchased Carna Biosciences
T2 sequence (O60674 whole entry): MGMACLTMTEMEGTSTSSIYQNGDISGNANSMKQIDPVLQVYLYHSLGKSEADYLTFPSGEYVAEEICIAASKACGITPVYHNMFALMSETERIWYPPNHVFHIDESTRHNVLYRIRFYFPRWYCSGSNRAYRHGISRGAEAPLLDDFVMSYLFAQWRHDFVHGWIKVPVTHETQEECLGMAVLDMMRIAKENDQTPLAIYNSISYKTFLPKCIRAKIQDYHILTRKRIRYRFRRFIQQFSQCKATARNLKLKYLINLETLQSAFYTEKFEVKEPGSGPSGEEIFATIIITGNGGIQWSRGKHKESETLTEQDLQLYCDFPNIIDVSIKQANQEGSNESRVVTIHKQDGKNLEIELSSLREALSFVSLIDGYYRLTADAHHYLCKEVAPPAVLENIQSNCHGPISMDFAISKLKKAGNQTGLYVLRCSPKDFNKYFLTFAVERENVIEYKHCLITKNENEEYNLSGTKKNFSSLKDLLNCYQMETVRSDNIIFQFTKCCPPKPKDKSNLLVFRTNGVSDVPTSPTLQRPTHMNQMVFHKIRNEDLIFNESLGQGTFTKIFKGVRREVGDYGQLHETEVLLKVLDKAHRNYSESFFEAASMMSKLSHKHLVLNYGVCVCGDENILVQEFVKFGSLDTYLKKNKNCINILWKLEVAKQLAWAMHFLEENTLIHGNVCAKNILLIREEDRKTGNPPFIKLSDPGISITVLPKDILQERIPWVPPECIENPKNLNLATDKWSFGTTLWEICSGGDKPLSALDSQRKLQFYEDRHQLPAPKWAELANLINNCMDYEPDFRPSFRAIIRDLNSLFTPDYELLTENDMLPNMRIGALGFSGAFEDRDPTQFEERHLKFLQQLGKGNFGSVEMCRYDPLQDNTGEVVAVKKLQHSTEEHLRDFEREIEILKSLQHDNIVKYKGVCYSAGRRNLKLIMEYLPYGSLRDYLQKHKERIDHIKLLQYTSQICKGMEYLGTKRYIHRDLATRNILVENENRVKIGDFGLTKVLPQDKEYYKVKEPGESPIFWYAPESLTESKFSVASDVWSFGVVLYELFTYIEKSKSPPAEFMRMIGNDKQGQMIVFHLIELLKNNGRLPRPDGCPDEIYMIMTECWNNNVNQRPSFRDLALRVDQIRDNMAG
Experimental: as §1

Recombinant JAK3 = target: T3, Recombinant JAK3 (Homo sapiens, UniProt P52333); assay: JAK biochemical assay (LANCE Ultra TR-FRET), JAK3; conditions: recombinant JAK3, TR-FRET; read-out: Biochemical Assay (μM) JAK3
T3 construct: purchased Carna Biosciences
T3 sequence (P52333 1-1124): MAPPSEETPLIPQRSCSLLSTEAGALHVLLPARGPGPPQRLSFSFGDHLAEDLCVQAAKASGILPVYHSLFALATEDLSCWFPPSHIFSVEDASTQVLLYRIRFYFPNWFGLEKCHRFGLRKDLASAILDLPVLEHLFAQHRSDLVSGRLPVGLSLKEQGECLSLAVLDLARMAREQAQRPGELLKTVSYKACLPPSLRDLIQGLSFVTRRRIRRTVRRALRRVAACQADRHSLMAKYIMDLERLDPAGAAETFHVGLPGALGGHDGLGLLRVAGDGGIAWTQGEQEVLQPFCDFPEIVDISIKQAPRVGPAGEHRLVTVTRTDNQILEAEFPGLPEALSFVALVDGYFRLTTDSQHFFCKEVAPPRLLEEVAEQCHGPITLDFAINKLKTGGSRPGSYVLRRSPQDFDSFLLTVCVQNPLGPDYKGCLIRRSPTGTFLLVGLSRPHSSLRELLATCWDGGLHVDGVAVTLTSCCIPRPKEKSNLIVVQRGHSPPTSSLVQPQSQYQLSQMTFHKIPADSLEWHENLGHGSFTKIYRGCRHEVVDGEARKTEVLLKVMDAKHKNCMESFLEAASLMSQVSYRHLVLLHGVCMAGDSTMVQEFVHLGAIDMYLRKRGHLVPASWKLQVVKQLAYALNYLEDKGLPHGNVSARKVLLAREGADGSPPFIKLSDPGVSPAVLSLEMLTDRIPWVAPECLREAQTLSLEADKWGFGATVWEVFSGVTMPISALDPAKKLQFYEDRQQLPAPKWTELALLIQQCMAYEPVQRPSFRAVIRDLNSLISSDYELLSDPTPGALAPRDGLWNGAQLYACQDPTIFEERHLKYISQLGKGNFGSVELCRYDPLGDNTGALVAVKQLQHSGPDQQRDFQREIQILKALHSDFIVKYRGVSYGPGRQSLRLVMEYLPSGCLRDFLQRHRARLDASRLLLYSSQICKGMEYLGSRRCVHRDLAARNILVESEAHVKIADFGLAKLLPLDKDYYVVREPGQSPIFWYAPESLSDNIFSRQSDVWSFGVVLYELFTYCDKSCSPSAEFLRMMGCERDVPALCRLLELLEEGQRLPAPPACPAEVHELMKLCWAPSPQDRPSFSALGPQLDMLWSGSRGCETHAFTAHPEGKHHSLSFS
Experimental: as §1

Recombinant TYK2 = target: T4, Recombinant TYK2 (Homo sapiens, UniProt P29597); assay: JAK biochemical assay (LANCE Ultra TR-FRET), TYK2; conditions: recombinant TYK2, TR-FRET; read-out: Biochemical Assay (μM) TYK2
T4 construct: purchased Carna Biosciences
T4 sequence (P29597 whole entry): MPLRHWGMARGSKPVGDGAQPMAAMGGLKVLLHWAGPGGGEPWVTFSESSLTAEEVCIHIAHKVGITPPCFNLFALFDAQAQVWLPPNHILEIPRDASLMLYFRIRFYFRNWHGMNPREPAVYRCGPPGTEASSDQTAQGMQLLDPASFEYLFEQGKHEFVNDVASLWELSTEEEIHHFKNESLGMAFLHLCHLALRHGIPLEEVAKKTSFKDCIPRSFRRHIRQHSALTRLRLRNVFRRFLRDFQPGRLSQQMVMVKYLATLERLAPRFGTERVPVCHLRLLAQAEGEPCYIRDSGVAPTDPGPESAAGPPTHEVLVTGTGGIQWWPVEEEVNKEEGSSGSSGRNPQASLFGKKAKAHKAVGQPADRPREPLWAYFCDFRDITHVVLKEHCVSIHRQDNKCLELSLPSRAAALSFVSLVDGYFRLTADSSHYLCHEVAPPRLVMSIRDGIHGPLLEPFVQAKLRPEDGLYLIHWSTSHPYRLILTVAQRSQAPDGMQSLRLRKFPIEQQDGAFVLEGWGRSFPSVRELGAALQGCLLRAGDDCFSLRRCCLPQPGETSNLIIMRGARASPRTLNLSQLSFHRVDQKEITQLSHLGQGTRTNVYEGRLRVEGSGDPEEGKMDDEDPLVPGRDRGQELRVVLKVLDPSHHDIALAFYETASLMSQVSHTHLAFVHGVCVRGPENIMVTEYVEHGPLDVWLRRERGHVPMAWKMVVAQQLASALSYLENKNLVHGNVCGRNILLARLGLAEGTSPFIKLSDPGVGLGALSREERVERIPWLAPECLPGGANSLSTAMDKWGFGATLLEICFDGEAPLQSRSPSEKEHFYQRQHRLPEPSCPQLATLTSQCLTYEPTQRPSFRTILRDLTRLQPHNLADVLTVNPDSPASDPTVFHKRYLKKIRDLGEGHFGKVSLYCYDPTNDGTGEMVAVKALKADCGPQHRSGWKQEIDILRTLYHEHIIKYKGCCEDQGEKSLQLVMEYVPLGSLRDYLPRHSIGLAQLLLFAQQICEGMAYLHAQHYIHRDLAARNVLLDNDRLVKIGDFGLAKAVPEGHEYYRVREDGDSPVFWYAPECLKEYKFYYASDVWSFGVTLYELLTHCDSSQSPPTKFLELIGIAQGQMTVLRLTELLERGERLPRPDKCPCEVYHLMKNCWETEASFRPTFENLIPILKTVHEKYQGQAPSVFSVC
Experimental: as §1

T1 sequence (P23458 whole entry): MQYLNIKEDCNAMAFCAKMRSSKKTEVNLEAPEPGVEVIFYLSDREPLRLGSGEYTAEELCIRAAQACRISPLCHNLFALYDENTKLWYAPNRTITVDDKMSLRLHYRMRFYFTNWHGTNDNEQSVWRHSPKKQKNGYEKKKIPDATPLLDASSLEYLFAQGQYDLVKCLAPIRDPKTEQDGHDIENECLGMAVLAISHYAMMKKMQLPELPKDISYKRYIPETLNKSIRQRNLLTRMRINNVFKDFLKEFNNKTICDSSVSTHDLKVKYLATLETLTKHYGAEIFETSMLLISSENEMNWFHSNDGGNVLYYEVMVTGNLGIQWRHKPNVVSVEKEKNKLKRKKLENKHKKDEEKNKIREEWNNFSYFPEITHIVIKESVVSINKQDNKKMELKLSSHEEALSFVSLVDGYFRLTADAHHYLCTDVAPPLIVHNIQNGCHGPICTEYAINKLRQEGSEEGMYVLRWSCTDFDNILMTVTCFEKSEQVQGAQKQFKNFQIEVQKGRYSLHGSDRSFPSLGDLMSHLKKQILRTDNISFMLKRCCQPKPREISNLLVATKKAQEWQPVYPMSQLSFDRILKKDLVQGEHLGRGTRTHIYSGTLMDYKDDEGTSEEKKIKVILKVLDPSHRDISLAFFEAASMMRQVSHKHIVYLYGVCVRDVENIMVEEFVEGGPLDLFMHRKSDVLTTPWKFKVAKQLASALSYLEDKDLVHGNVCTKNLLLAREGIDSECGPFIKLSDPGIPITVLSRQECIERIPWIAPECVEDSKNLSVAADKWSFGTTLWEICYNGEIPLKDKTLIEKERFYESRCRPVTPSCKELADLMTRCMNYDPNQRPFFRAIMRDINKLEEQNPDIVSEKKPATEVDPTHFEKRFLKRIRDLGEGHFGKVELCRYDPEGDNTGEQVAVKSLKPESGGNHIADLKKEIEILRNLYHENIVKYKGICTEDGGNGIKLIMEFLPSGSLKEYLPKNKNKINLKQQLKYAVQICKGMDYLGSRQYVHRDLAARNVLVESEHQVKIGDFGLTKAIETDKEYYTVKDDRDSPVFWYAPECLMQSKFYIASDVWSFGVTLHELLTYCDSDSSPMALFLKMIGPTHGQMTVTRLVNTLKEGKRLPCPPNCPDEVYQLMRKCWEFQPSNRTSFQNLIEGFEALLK

O=C(NCC(F)(F)F)Nc1ncc(-c2ccnc3[nH]c(=O)[nH]c23)cn1 [Example 1004, 1-(2,2,2-trifluoroethyl)-3-(5-(2,3-dihydro-2-oxo-1H-imidazo[4,5-b]pyridin-7-yl)pyrimidin-2-yl)urea]
IC50 (Recombinant JAK1): > 10 µM
IC50 (Recombinant JAK2): > 10 µM
IC50 (Recombinant JAK3): > 10 µM
IC50 (Recombinant TYK2): > 10 µM

N#CCc1ccc(-n2cc(-c3ccnc4[nH]cnc34)cn2)cc1F [Example 1104, 2-(4-(4-(3H-imidazo[4,5-b]pyridin-7-yl)-1H-pyrazol-1-yl)-2-fluorophenyl)acetonitrile]
IC50 (Recombinant JAK1): > 1 µM
IC50 (Recombinant JAK2): < 0.5 µM
IC50 (Recombinant JAK3): < 0.5 µM
IC50 (Recombinant TYK2): > 1 µM

CS(=O)(=O)CCC(c1ccc(-n2cc(-c3ccnc4[nH]c(=O)[nH]c34)cn2)nc1)C(F)(F)F (stereo not drawn) [Example 1147, 7-(1-(5-(1,1,1-trifluoro-4-(methylsulfonyl)butan-2-yl)pyridin-2-yl)-1H-pyrazol-4-yl)-1H-imidazo[4,5-b]pyridin-2(3H)-one]
IC50 (Recombinant JAK1): > 0.5 µM
IC50 (Recombinant JAK2): > 1 µM
IC50 (Recombinant JAK3): > 1 µM
IC50 (Recombinant TYK2): > 1 µM

O=C(NCC1CCCC1)n1cc(-c2ccnc3[nH]c(=O)[nH]c23)cn1 [Example 1034, N-(cyclopentylmethyl)-4-(2,3-dihydro-2-oxo-1H-imidazo[4,5-b]pyridin-7-yl)-1H-pyrazole-1-carboxamide]
IC50 (Recombinant JAK1): > 1 µM
IC50 (Recombinant JAK2): > 1 µM
IC50 (Recombinant JAK3): > 10 µM
IC50 (Recombinant TYK2): > 10 µM

N#CCC(NC(=O)n1cc(-c2ccnc3[nH]cnc23)cn1)C1CCOCC1 (stereo not drawn) [Example 1065, N-(2-cyano-1-(tetrahydro-2H-pyran-4-yl)ethyl)-4-(3H-imidazo[4,5-b]pyridin-7-yl)-1H-pyrazole-1-carboxamide]
IC50 (Recombinant JAK1): > 0.5 µM
IC50 (Recombinant JAK2): < 0.5 µM
IC50 (Recombinant JAK3): > 0.5 µM
IC50 (Recombinant TYK2): > 0.5 µM

COc1cc(-n2cc(-c3ccnc4[nH]cnc34)cn2)ccc1CC#N [Example 1105, 2-(4-(4-(3H-imidazo[4,5-b]pyridin-7-yl)-1H-pyrazol-1-yl)-2-methoxyphenyl)acetonitrile]
IC50 (Recombinant JAK1): > 1 µM
IC50 (Recombinant JAK2): > 0.5 µM
IC50 (Recombinant JAK3): > 0.5 µM
IC50 (Recombinant TYK2): > 10 µM

CC(C)OC(c1ccc(-n2cc(-c3ccnc4[nH]cnc34)cn2)nc1)C(F)(F)F (stereo not drawn) [Example 1124, 7-(1-(5-(2,2,2-trifluoro-1-isopropoxyethyl)pyridin-2-yl)-1H-pyrazol-4-yl)-3H-imidazo[4,5-b]pyridine]
IC50 (Recombinant JAK1): > 1 µM
IC50 (Recombinant JAK2): > 1 µM
IC50 (Recombinant JAK3): > 0.5 µM
IC50 (Recombinant TYK2): > 1 µM

O=C(NCC(F)(F)F)n1cc(-c2cccc3[nH]c(=O)[nH]c23)cn1 [Example 1036, N-(2,2,2-trifluoroethyl)-4-(2,3-dihydro-2-oxo-1H-benzo[d]imidazol-4-yl)-1H-pyrazole-1-carboxamide]
IC50 (Recombinant JAK1): > 10 µM
IC50 (Recombinant JAK2): > 10 µM
IC50 (Recombinant JAK3): > 10 µM
IC50 (Recombinant TYK2): > 10 µM

CC(=O)N1CCC(c2nc3c(-c4cnn(C(=O)NCC(F)(F)F)c4)ccnc3[nH]2)CC1 [Example 1098, 4-(2-(1-acetylpiperidin-4-yl)-3H-imidazo[4,5-b]pyridin-7-yl)-N-(2,2,2-trifluoroethyl)-1H-pyrazole-1-carboxamide]
IC50 (Recombinant JAK1): > 1 µM
IC50 (Recombinant JAK2): > 1 µM
IC50 (Recombinant JAK3): > 1 µM
IC50 (Recombinant TYK2): > 10 µM

O=C(CC(c1ccc(-n2cc(-c3ccnc4[nH]cnc34)cn2)nc1)C(F)(F)F)N1CCOCC1 (stereo not drawn) [Example 1249, 3-(6-(4-(3H-imidazo[4,5-b]pyridin-7-yl)-1H-pyrazol-1-yl)pyridin-3-yl)-4,4,4-trifluoro-1-morpholinobutan-1-one]
IC50 (Recombinant JAK1): > 0.5 µM
IC50 (Recombinant JAK2): > 0.5 µM
IC50 (Recombinant JAK3): > 0.5 µM
IC50 (Recombinant TYK2): > 1 µM

CS(=O)(=O)CCC(c1ccc(-n2cc(-c3ccnc4[nH]c(=O)[nH]c34)cn2)nc1)C(F)(F)F (stereo not drawn) [Example 1189, 7-(1-(5-(1,1,1-trifluoro-4-(methylsulfonyl)butan-2-yl)pyridin-2-yl)-1H-pyrazol-4-yl)-1H-imidazo[4,5-b]pyridin-2(3H)-one]
IC50 (Recombinant JAK1): > 0.5 µM
IC50 (Recombinant JAK2): > 1 µM
IC50 (Recombinant JAK3): > 1 µM
IC50 (Recombinant TYK2): > 1 µM

O=C(NCC1CCCC1)N1CCN(c2ccnc3[nH]c(=O)[nH]c23)CC1 [Example 1017, N-(cyclopentylmethyl)-4-(2,3-dihydro-2-oxo-1H-imidazo[4,5-b]pyridin-7-yl)piperazine-1-carboxamide]
IC50 (Recombinant JAK1): > 1 µM
IC50 (Recombinant JAK2): > 1 µM
IC50 (Recombinant JAK3): > 10 µM
IC50 (Recombinant TYK2): > 10 µM

O=C(NCC(F)(F)F)n1ccc(-c2ccnc3[nH]c(=O)[nH]c23)c1 [Example 1028, N-(2,2,2-trifluoroethyl)-3-(2,3-dihydro-2-oxo-1H-imidazo[4,5-b]pyridin-7-yl)-1H-pyrrole-1-carboxamide]
IC50 (Recombinant JAK1): > 1 µM
IC50 (Recombinant JAK2): > 1 µM
IC50 (Recombinant JAK3): > 1 µM
IC50 (Recombinant TYK2): > 1 µM

CC(C)(O)CC(c1ccc(-n2cc(-c3ccnc4[nH]cnc34)cn2)nc1)C(F)(F)F (stereo not drawn) [Example 1193, 4-(6-(4-(3H-imidazo[4,5-b]pyridin-7-yl)-1H-pyrazol-1-yl)pyridin-3-yl)-5,5,5-trifluoro-2-methylpentan-2-ol]
IC50 (Recombinant JAK1): > 0.1 µM
IC50 (Recombinant JAK2): > 0.5 µM
IC50 (Recombinant JAK3): > 0.1 µM
IC50 (Recombinant TYK2): > 1 µM

CC(C)N(CCC(c1ccc(-n2cc(-c3ccnc4[nH]cnc34)cn2)nc1)C(F)(F)F)C(C)C (stereo not drawn) [Example 1211, 3-(6-(4-(3H-imidazo[4,5-b]pyridin-7-yl)-1H-pyrazol-1-yl)pyridin-3-yl)-4,4,4-trifluoro-N,N-diisopropylbutan-1-amine]
IC50 (Recombinant JAK1): < 0.1 µM
IC50 (Recombinant JAK2): > 0.1 µM
IC50 (Recombinant JAK3): > 0.1 µM
IC50 (Recombinant TYK2): > 1 µM

COCCC(c1ccc(-n2cc(-c3ccnc4[nH]cnc34)cn2)nc1)C(F)(F)F (stereo not drawn) [Example 1155, 7-(1-(5-(1,1,1-trifluoro-4-methoxybutan-2-yl)pyridin-2-yl)-1H-pyrazol-4-yl)-3H-imidazo[4,5-b]pyridine]
IC50 (Recombinant JAK1): > 0.1 µM
IC50 (Recombinant JAK2): > 0.5 µM
IC50 (Recombinant JAK3): > 0.1 µM
IC50 (Recombinant TYK2): > 1 µM

CS(=O)(=O)N1CCC(C(O)c2ccc(-n3cc(-c4ccnc5[nH]cnc45)cn3)nc2)CC1 (stereo not drawn) [Example 1164, (6-(4-(3H-imidazo[4,5-b]pyridin-7-yl)-1H-pyrazol-1-yl)pyridin-3-yl)(1-(methylsulfonyl)piperidin-4-yl)methanol]
IC50 (Recombinant JAK1): > 1 µM
IC50 (Recombinant JAK2): > 1 µM
IC50 (Recombinant JAK3): > 1 µM
IC50 (Recombinant TYK2): > 1 µM

O=C1Cc2c(-c3cnn(C(=O)NCC(F)(F)F)c3)ccnc2N1 [Example 1045, N-(2,2,2-trifluoroethyl)-4-(2,3-dihydro-2-oxo-1H-pyrrolo[2,3-b]pyridin-4-yl)-1H-pyrazole-1-carboxamide]
IC50 (Recombinant JAK1): > 1 µM
IC50 (Recombinant JAK2): > 1 µM
IC50 (Recombinant JAK3): > 1 µM
IC50 (Recombinant TYK2): > 1 µM

OC(c1ccc(-n2cc(-c3ccnc4[nH]cnc34)cn2)nc1)C1CC1 (stereo not drawn) [Example 1159, (6-(4-(3H-imidazo[4,5-b]pyridin-7-yl)-1H-pyrazol-1-yl)pyridin-3-yl)(cyclopropyl)methanol]
IC50 (Recombinant JAK1): < 0.1 µM
IC50 (Recombinant JAK2): > 0.1 µM
IC50 (Recombinant JAK3): < 0.1 µM
IC50 (Recombinant TYK2): > 1 µM

CC(CCS(C)(=O)=O)c1ccc(-n2cc(-c3ccnc4[nH]cnc34)cn2)nc1 (stereo not drawn) [Example 1163, 7-(1-(5-(4-(methylsulfonyl)butan-2-yl)pyridin-2-yl)-1H-pyrazol-4-yl)-3H-imidazo[4,5-b]pyridine]
IC50 (Recombinant JAK1): > 0.5 µM
IC50 (Recombinant JAK2): > 0.5 µM
IC50 (Recombinant JAK3): > 0.5 µM
IC50 (Recombinant TYK2): > 1 µM

CS(=O)(=O)CCC(c1ccnc(-n2cc(-c3ccnc4[nH]cnc34)cn2)c1)C(F)(F)F (stereo not drawn) [Example 1176, 7-(1-(4-(1,1,1-trifluoro-4-(methylsulfonyl)butan-2-yl)pyridin-2-yl)-1H-pyrazol-4-yl)-3H-imidazo[4,5-b]pyridine]
IC50 (Recombinant JAK1): > 1 µM
IC50 (Recombinant JAK2): > 1 µM
IC50 (Recombinant JAK3): > 1 µM
IC50 (Recombinant TYK2): > 1 µM
